In one experiment the target is SPM-1 (Pseudomonas aeruginosa, UniProt Q8G9Q0). Nature of the experiment: IC50, inhibition of cephalothin hydrolysis by crude extract.
The test system of the next experiment is IMP-producers. Further details: method as in Hamrick et al. 2020, Le Terrier et al. 2024. As to conditions: ref Hamrick et al. 2020, Le Terrier et al. 2024; cited from earlier work.
Another experiment has as its target VIM-2 (Escherichia coli, UniProt Q5U7L7). Nature of the experiment: IC50, inhibition of cephalothin hydrolysis by crude extract.
For experiment [1], the target named is T1, IMP-10 (Serratia marcescens, UniProt P52699, V49F). Described as above.
T1 sequence (P52699 19-246 V49F): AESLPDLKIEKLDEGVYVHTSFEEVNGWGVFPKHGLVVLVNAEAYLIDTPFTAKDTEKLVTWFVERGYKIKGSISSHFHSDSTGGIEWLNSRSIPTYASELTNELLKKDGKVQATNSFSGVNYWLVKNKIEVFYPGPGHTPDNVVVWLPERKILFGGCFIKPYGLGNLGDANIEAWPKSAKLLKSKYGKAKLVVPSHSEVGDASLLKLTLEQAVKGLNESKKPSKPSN
For another experiment, the target named is IMP-13 (Pseudomonas aeruginosa, UniProt Q7WYA8). Described as above.
Sequence of IMP-13 (Q7WYA8 21-246): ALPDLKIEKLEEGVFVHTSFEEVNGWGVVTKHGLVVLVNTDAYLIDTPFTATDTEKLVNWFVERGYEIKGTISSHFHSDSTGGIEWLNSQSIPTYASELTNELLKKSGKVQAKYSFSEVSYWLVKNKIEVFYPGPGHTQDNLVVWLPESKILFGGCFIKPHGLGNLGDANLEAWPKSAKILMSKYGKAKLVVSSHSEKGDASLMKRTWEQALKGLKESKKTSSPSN
The target in another experiment is IMP-1 (Serratia marcescens, UniProt P52699). The experiment is described as above.
Sequence of IMP-1 (P52699 19-246 limits assumed): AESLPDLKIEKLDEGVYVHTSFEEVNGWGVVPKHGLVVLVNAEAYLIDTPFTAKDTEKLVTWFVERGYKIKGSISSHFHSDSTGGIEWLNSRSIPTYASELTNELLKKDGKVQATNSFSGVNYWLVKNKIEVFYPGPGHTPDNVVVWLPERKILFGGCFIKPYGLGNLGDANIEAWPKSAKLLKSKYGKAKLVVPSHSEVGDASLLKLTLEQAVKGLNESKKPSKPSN
A further experiment has as its target VIM-1 (Pseudomonas aeruginosa, UniProt A0A0F7KYQ8). The experiment is described as above.
For experiment [2], the target named is T1, IMP-10. As to conditions: ref Le Terrier et al. 2024; cited from earlier work.
Experiment [3] relates to PAO1 TnoprD producing NDM-1. Nature of the experiment: MIC and checkerboard by broth microdilution, recombinant strain. Format: cell-based, Pseudomonas aeruginosa. As to conditions: NDM-1 TnoprD; antibiotic alone. The method, then:
(§1) The fractional inhibitory concentration index (FICI) was calculated and interpreted as follows: the MIC of drug A in combination/the MIC of drug A alone + the MIC of drug B in combination/the MIC drug B alone. FICI ≤ 0.5 = synergy; 0.5 < FICI ≤ 1 = additive; FICI 1 < FICI < 2 = indifference, and FICI ≥ 2 = antagonism. All susceptibility testing/checkerboard assays were performed in triplicate.
In general terms: In broth dilution the organism is exposed to a series of concentrations in liquid medium.

Experiment [4] relates to PAO1 and PAO1 TnoprD producing one of eight different carbapenemases. Nature of the experiment: MIC and checkerboard, isogenic strains as a group. Format: cell-based, Pseudomonas aeruginosa.
Source text: (§2) Pseudomonas aeruginosa isolate, PAO1, was used alongside its isogenic counterpart, PAO1 TnoprD, which lacks a functional OprD porin (Held et al. [2012]). β-lactamases, blaIMP-1, blaIMP-10, blaIMP-13, blaNDM-1, blaSPM-1, blaVIM-1, blaVIM-2, and blaKPC-2, had previously been cloned into the pUCP24 shuttle vector (Bouvier et al. [2025]), and were transformed by electroporation into both PAO1 and PAO1 TnoprD.
as §1, with “. MICs of DMSA, CAZ, FEP and checkerboards for the combinations, CAZ/DMSA and FEP/DMSA, were performed for all clinical isolates. All susceptibility testing results were interpreted according to CLSI guidelines (CLSI [2023]). The” for “The”

The subject of a further experiment is PAO1 producing IMP-13. Nature of the experiment: MIC and checkerboard by broth microdilution, recombinant strain. The format is cell-based, Pseudomonas aeruginosa. As to conditions: antibiotic alone.
Source text: as §2
as §1, with “. MICs of DMSA, CAZ, FEP and checkerboards for the combinations, CAZ/DMSA and FEP/DMSA, were performed for all clinical isolates. All susceptibility testing results were interpreted according to CLSI guidelines (CLSI [2023]). The” for “The”

Experiment [5] relates to PAO1 TnoprD producing IMP-13. The description is as above. As to conditions: IMP-13 TnoprD; antibiotic alone. Format: cell-based, Pseudomonas aeruginosa.
Source text: as §2
as §1, with “. MICs of DMSA, CAZ, FEP and checkerboards for the combinations, CAZ/DMSA and FEP/DMSA, were performed for all clinical isolates. All susceptibility testing results were interpreted according to CLSI guidelines (CLSI [2023]). The” for “The”

The subject of experiment [6] is PAO1 TnoprD producing SPM-1. Described as above. The format is cell-based, Pseudomonas aeruginosa. As to conditions: SPM-1 TnoprD; antibiotic alone.
Source text: as §2
as §1, with “. MICs of DMSA, CAZ, FEP and checkerboards for the combinations, CAZ/DMSA and FEP/DMSA, were performed for all clinical isolates. All susceptibility testing results were interpreted according to CLSI guidelines (CLSI [2023]). The” for “The”

In the next experiment the test system is PAO1 producing VIM-1. Described as above. The format is cell-based, Pseudomonas aeruginosa. As to conditions: antibiotic alone.
Source text: as §2
as §1, with “. MICs of DMSA, CAZ, FEP and checkerboards for the combinations, CAZ/DMSA and FEP/DMSA, were performed for all clinical isolates. All susceptibility testing results were interpreted according to CLSI guidelines (CLSI [2023]). The” for “The”

Another experiment relates to PAO1 producing VIM-2. The experiment is described as above. The format is cell-based, Pseudomonas aeruginosa. As to conditions: antibiotic alone.
Source text: as §2
as §1, with “. MICs of DMSA, CAZ, FEP and checkerboards for the combinations, CAZ/DMSA and FEP/DMSA, were performed for all clinical isolates. All susceptibility testing results were interpreted according to CLSI guidelines (CLSI [2023]). The” for “The”

The next experiment has as its system PAO1 producing IMP-1. The description is as above. As to conditions: antibiotic alone. The format is cell-based, Pseudomonas aeruginosa.
Source text: as §2
as §1, with “. MICs of DMSA, CAZ, FEP and checkerboards for the combinations, CAZ/DMSA and FEP/DMSA, were performed for all clinical isolates. All susceptibility testing results were interpreted according to CLSI guidelines (CLSI [2023]). The” for “The”

Experiment [7] relates to PAO1 TnoprD producing IMP-10. The experiment is described as above. Format: cell-based, Pseudomonas aeruginosa. As to conditions: IMP-10 TnoprD; antibiotic alone.
Source text: as §2
as §1, with “. MICs of DMSA, CAZ, FEP and checkerboards for the combinations, CAZ/DMSA and FEP/DMSA, were performed for all clinical isolates. All susceptibility testing results were interpreted according to CLSI guidelines (CLSI [2023]). The” for “The”

Another experiment relates to PAO1 producing SPM-1. The experiment is described as above. Format: cell-based, Pseudomonas aeruginosa. As to conditions: antibiotic alone.
Source text: as §2
as §1, with “. MICs of DMSA, CAZ, FEP and checkerboards for the combinations, CAZ/DMSA and FEP/DMSA, were performed for all clinical isolates. All susceptibility testing results were interpreted according to CLSI guidelines (CLSI [2023]). The” for “The”

Experiment [8] concerns PAO1 TnoprD producing VIM-2. Described as above. The format is cell-based, Pseudomonas aeruginosa. As to conditions: VIM-2 TnoprD; antibiotic alone.
Source text: as §2
as §1, with “. MICs of DMSA, CAZ, FEP and checkerboards for the combinations, CAZ/DMSA and FEP/DMSA, were performed for all clinical isolates. All susceptibility testing results were interpreted according to CLSI guidelines (CLSI [2023]). The” for “The”

For the next experiment, the system named is PAO1 producing KPC-2. The format is cell-based, Pseudomonas aeruginosa. As to conditions: antibiotic alone. The method, then:
as §1

Experiment [9] deals with PAO1 TnoprD producing KPC-2. The format is cell-based, Pseudomonas aeruginosa. As to conditions: KPC-2 TnoprD; antibiotic alone. The method, then:
as §1

The next experiment concerns PAO1 producing IMP-10. Nature of the experiment: MIC and checkerboard by broth microdilution, recombinant strain. The format is cell-based, Pseudomonas aeruginosa. As to conditions: antibiotic alone. The method, then:
as §1

For a further experiment, the system named is PAO1 producing NDM-1. The description is as above. Format: cell-based, Pseudomonas aeruginosa. As to conditions: antibiotic alone. The method, then: as §1
For experiment [10], the system named is PAO1 TnoprD producing IMP-1. The experiment is described as above. Format: cell-based, Pseudomonas aeruginosa. As to conditions: IMP-1 TnoprD; antibiotic alone. The method, then: as §1
Experiment [11] deals with PAO1 TnoprD producing VIM-1. The experiment is described as above. As to conditions: VIM-1 TnoprD; antibiotic alone. The format is cell-based, Pseudomonas aeruginosa. The method, then:
as §1

Like-named read-outs stand apart in the source and are kept apart here. A value given as a limit tells only on which side of the number the result lay.

Sequence of SPM-1 (Q8G9Q0 entry or part of it): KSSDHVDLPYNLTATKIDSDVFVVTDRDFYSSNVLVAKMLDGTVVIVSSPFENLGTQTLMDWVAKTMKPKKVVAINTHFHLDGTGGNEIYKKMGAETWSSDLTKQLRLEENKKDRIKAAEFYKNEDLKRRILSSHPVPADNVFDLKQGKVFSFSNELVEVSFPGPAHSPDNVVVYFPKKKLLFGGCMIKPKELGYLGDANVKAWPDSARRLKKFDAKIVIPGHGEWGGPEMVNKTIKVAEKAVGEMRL

For the compound `NCCN[C@H]1CC[C@H](CC(=O)N[C@H]2Cc3cccc(C(=O)O)c3OB2O)CC1` [TAN, taniborbactam], the concentration for half-maximal inhibition (IC50) against SPM-1 (SPM-1, 100 μM cephalothin, pH 7.0) was 2.7 µM; on VIM-2 (VIM-2, 100 μM cephalothin, pH 7.0), 0.5 µM; against IMP-10 [1] (IMP-10, 100 μM cephalothin, pH 7.0), greater than 1000 µM; against IMP-13 (IMP-13, 100 μM cephalothin, pH 7.0), greater than 1000 µM; at IMP-1 (IMP-1, 100 μM cephalothin, pH 7.0) it was greater than 1000 µM; against VIM-1 (VIM-1, 100 μM cephalothin, pH 7.0), 0.8 µM. The “activity against IMP-producers” value in the experiment with IMP-producers is “poor activity”.
Consider `O=C(O)c1c(F)ccc2c1OB(O)[C@@H]1C[C@H]21` [XER, xeruborbactam], for which the “activity against IMP-10” value at IMP-10 [2] is “limited activity”. Besides, the IC50 was greater than 1000 µM against SPM-1; 0.1 µM on VIM-2; 73 µM against IMP-10 [1]; 3.6 µM against IMP-13; 2.7 µM on IMP-1; 0.5 µM at VIM-1.
As for `C[C@@H](O)[C@H]1C(=O)N2C(C(=O)O)=C(S[C@@H]3CN[C@H](C(=O)N(C)C)C3)[C@H](C)[C@H]12` [MEM, meropenem], the minimal inhibitory concentration (MIC) in [3] amounted to 256 µg/mL; in the experiment with PAO1 producing IMP-13, 4 µg/mL; in experiment [5] it was 8 µg/mL; in experiment [6], 64 µg/mL; in the experiment with PAO1 producing VIM-1, 64 µg/mL; with PAO1 producing VIM-2 it was 4 µg/mL. The MIC stood at 64 µg/mL in the experiment with PAO1 producing IMP-1; 256 µg/mL in experiment [7]; 32 µg/mL with PAO1 producing SPM-1; 8 µg/mL in [8]; 256 µg/mL with PAO1 producing KPC-2; 512 µg/mL in experiment [9]. Further, the “interaction with DMSA as indicated by the FICIs” value in [4] (SPM-1 strains, DMSA 200 and 300 mg/l) is given as “synergy (FICI ≤ 0.5 = synergy)”; in experiment [4] (strains producing IMP-1, IMP-10 or IMP-13, with and without functional OprD, DMSA 200 and 300 mg/l), “synergy (FICI ≤ 0.5 = synergy)”.
For the compound `C[C@@H](O)[C@H]1C(=O)N2C(C(=O)O)=C(SCCN=CN)C[C@H]12` [IPM, imipenem], the MIC in the experiment on PAO1 producing IMP-10 is 8 µg/mL; with PAO1 producing NDM-1, 32 µg/mL; in experiment [10] it was 64 µg/mL; in the experiment on PAO1 producing IMP-13, 1 µg/mL; in experiment [5] it was 8 µg/mL; in experiment [6], 16 µg/mL. In addition, the MIC was 64 µg/mL in the experiment with PAO1 producing VIM-1; 4 µg/mL in the experiment on PAO1 producing VIM-2; 16 µg/mL in the experiment on PAO1 producing IMP-1; 64 µg/mL in experiment [7]; 2 µg/mL with PAO1 producing SPM-1; 32 µg/mL in experiment [8]. Also, the MIC in [9] was determined as 512 µg/mL.
Regarding `CO/N=C(\C(=O)N[C@@H]1C(=O)N2C(C(=O)[O-])=C(C[N+]3(C)CCCC3)CS[C@H]12)c1csc(N)n1` [FEP, cefepime], the minimum inhibitory concentration (MIC) in [11] came out at 512 µg/mL; in experiment [3], 256 µg/mL; with PAO1 producing IMP-10, 256 µg/mL; with PAO1 producing NDM-1, 256 µg/mL; in experiment [10] it was 512 µg/mL; in the experiment on PAO1 producing IMP-13, 16 µg/mL. Moreover, the MIC is 16 µg/mL in experiment [5]; 64 µg/mL in experiment [6]; 512 µg/mL in the experiment on PAO1 producing VIM-1; 2 µg/mL in the experiment on PAO1 producing VIM-2; 512 µg/mL in the experiment on PAO1 producing IMP-1; 256 µg/mL in experiment [7]. Moreover, the MIC was 64 µg/mL in the experiment on PAO1 producing SPM-1, 2 µg/mL in experiment [8], 512 µg/mL in the experiment with PAO1 producing KPC-2 and 512 µg/mL in experiment [9]. Also, the “interaction with DMSA as indicated by the FICIs” value in [4] (strains producing IMP-1, IMP-10 or IMP-13, with and without functional OprD, all three DMSA concentrations (100, 200, 300 mg/l)) was “synergy (FICI ≤ 0.5 = synergy)”.

In general, IC50 refers to the point on the concentration scale where inhibition reaches its midpoint. For orientation: MIC means the least concentration at which growth counts as inhibited.

The record behind these values is article PMC12147714 (FEMS Microbiology Letters, 2025).
